We go through 20 compounds from patent US10053462B2, “P2X7 modulators” (Jansssen Pharmaceutica NV, priority 2013, dated 2018).

Structures are written as SMILES. Like-named read-outs stand apart in the source and are kept apart here.

The test has as its target P2X7 (Homo sapiens (Human), UniProt Q99572). The experiment in a line: P2X7 antagonism in human peripheral blood mononuclear cells (PBMCs), IL-1β release. It is filed as cell-based. The conditions noted are these: LPS 30 ng/ml + Bz-ATP 0.5 mM; for remaining activity at 10 µM: read-out: PBMC 10 μM (% control). Here is the method:
P2X7 Antagonism in Human Peripheral Blood Mononuclear Cells (PBMCs) and Human Whole Blood.
Human blood was collected using a blood donor program. PBMCs were isolated from blood using a Ficoll density gradient technique. Briefly, blood was laid on Ficoll solution and centrifuged at RT for 20 minutes at 2000 rpm. The buffy layer (between red blood cells and plasma) was carefully collected by aspiration, washed with PBS and centrifuged again at 1500 rpm for 15 minutes. The resulting cell pellet was washed and plated on 96 well-plates for experiments. For the Human Whole Blood experiments, 150 μl of human blood was platted on 96 well-plates. Lipopolysaccharide (LPS) (30 ng/ml) was added to each well and incubated for 1 hour. Test compounds were then added and incubated for 30 minutes. The P2X7 agonist, 2′(3′)-O-(4-benzoylbenzoyl) adenosine 5′-triphosphate (Bz-ATP) was then added at a final concentration of 0.5 mM (PBMC) or 1 mM (blood). Cells were incubated for an additional 1.5 hours. At that point, supernatant was collected and stored for IL-1β assay using manufacturer's protocol for enzyme-linked immunosorbent assay (ELISA). Data was expressed as percent control, where control is defined as the difference in IL-1β release in LPS+Bz-ATP samples and LPS only samples. Data was plotted as response (% control) versus concentration to generate IC50 values. […] Data are analyzed and graphed on Graphpad Prism 5. For analysis, each concentration point is averaged from triplicate values and the averaged values are plotted on Graphpad Prism.

Where [1] appears, read: P2X7, Table 2 (additional runs), 10 μM compound.

P2X7, sequence (Q99572 whole entry): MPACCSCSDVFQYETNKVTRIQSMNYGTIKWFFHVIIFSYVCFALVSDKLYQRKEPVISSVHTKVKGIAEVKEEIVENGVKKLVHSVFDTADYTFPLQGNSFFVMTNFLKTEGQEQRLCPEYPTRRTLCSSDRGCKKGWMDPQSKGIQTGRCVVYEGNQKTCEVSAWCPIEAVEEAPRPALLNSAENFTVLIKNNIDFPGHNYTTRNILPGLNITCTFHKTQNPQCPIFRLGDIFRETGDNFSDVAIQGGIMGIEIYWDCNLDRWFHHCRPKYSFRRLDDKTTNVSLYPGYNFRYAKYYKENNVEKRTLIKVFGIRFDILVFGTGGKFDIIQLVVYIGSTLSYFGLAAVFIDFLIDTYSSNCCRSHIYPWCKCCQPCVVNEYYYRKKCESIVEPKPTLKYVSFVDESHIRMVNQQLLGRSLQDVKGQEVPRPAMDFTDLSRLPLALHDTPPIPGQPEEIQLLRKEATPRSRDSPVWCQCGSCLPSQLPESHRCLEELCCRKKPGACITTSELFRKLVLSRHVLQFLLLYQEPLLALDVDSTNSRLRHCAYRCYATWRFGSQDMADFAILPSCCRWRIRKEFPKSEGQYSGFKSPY

For the compound `O=C(c1cccc(C(F)(F)F)c1Cl)N1[C@@H]2CCC[C@H]1c1nnc(-c3ccc(F)cn3)n1C2` (stereo in doubt) [Example 12, (6R*,10S*)-11-{[2-Chloro-3-(trifluoromethyl)phenyl]carbonyl}-3-(5-fluoropyridin-2-yl)-5,6,7,8,9,10-hexahydro-6,10-epimino[1,2,4]triazolo[4,3-a]azocine], the remaining activity at 10 µM runs as follows: (P2X7, Table 1, 10 μM compound) -0.8%; under setting [1], 3.6%. On to `O=C(c1ccc(F)c(Cl)c1Cl)N1[C@@H]2CCC[C@H]1c1nnc(-c3ccccn3)n1C2` (stereo in doubt) [Example 203, (6R,10S)-11-[(2,3-Dichloro-4-fluorophenyl)carbonyl]-3-pyridin-2-yl-5,6,7,8,9,10-hexahydro-6,10-epimino[1,2,4]triazolo[4,3-a]azocine], for which the remaining activity at 10 µM under setting [1] is -5%. On to `COc1ccnc(-c2nnc3n2C[C@H]2CCC[C@@H]3N2C(=O)c2cccc(C(F)(F)F)c2Cl)c1` (stereo in doubt) [Example 27, (6R*,10S*)-11-{[2-Chloro-3-(trifluoromethyl)phenyl]carbonyl}-3-(4-methoxypyridin-2-yl)-5,6,7,8,9,10-hexahydro-6,10-epimino[1,2,4]triazolo[4,3-a]azocine], for which the remaining activity at 10 µM is 4.8% (P2X7, Table 1, 10 μM compound) and 4.8% under setting [1]. For the compound `O=C(c1cccc(C(F)(F)F)c1Cl)N1[C@H]2CCC[C@@H]1c1nnc(-c3ccc(F)cn3)n1C2` (stereo in doubt) [Example 11, (6S*,10R*)-11-{[2-Chloro-3-(trifluoromethyl)phenyl]carbonyl}-3-(5-fluoropyridin-2-yl)-5,6,7,8,9,10-hexahydro-6,10-epimino[1,2,4]triazolo[4,3-a]azocine], the remaining activity at 10 µM was 38.9% (P2X7, Table 1, 10 μM compound) and 38.9% under setting [1]. As to `O=C(c1ccnc(C(F)(F)F)c1Cl)N1[C@@H]2CCC[C@H]1c1nnc(-c3ccccn3)n1C2` (stereo in doubt) [Example 199, (6R,10S)-11-{[3-Chloro-2-(trifluoromethyl)pyridin-4-yl]carbonyl}-3-pyridin-2-yl-5,6,7,8,9,10-hexahydro-6,10-epimino[1,2,4]triazolo[4,3-a]azocine], under setting [1], the remaining activity at 10 µM is -3.2%. Turning to `O=C(c1cccc(C(F)(F)F)c1Cl)N1[C@H]2CCC[C@@H]1c1nnc(-c3ncccn3)n1C2` (stereo in doubt) [Example 2, (6S*,10R*)-11-{[2-Chloro-3-(trifluoromethyl)phenyl]carbonyl}-3-pyrimidin-2-yl-5,6,7,8,9,10-hexahydro-6,10-epimino[1,2,4]triazolo[4,3-a]azocine], the remaining activity at 10 µM came to 45.7% (P2X7, Table 1, 10 μM compound) and 45.7% under setting [1].

Consider `O=C(c1cccc(C(F)(F)F)c1Cl)N1[C@@H]2CCC[C@H]1c1nnc(-c3ncccn3)n1C2` (stereo in doubt) [Example 3, (6R*,10S*)-11-{[2-Chloro-3-(trifluoromethyl)phenyl]carbonyl}-3-pyrimidin-2-yl-5,6,7,8,9,10-hexahydro-6,10-epimino[1,2,4]triazolo[4,3-a]azocine], for which the remaining activity at 10 µM reads like this: (P2X7, Table 1, 10 μM compound) 8.9%; under setting [1], 8.9%. As to `O=C(c1cccc(C(F)(F)F)c1Cl)N1[C@H]2CC[C@@H]1c1nnc(-c3ncccn3)n1C2` [Example 46, (6S,9R)-10-{[2-Chloro-3-(trifluoromethyl)phenyl]carbonyl}-3-pyrimidin-2-yl-6,7,8,9-tetrahydro-5H-6,9-epimino[1,2,4]triazolo[4,3-a]azepine], under setting [1], the remaining activity at 10 µM came out at 10%. For the same compound, under “Table 1, 10 μM compound”, the “PBMC 10 μM (% control)” value was determined as 10.0 % control. Take `O=C(c1cccc(C(F)(F)F)c1Cl)N1[C@@H]2CCC[C@H]1c1nnc(-c3ccncn3)n1C2` (stereo in doubt) [Example 197, (6R,10S)-11-{[2-Chloro-3-(trifluoromethyl)phenyl]carbonyl}-3-pyrimidin-4-yl-5,6,7,8,9,10-hexahydro-6,10-epimino[1,2,4]triazolo[4,3-a]azocine]: the remaining activity at 10 µM under setting [1] was found to be 1.8%. As for `O=C(c1cccc(C(F)(F)F)c1Cl)N1[C@H]2CCC[C@@H]1c1nnc(-c3ccc(F)cc3)n1C2` (stereo in doubt) [Example 5, (6S*,10R*)-11-{[2-Chloro-3-(trifluoromethyl)phenyl]carbonyl}-3-(4-fluorophenyl)-5,6,7,8,9,10-hexahydro-6,10-epimino[1,2,4]triazolo[4,3-a]azocine], the remaining activity at 10 µM is -4.4% (P2X7, Table 1, 10 μM compound) and -4.4% under setting [1]. Turning to `Cc1nc(-c2nnc3n2C[C@H]2CCC[C@@H]3N2C(=O)c2cccc(C(F)(F)F)c2Cl)ccc1F` (stereo in doubt) [Example 193, (6R,10S)-11-{[2-Chloro-3-(trifluoromethyl)phenyl]carbonyl}-3-(5-fluoro-6-methylpyridin-2-yl)-5,6,7,8,9,10-hexahydro-6,10-epimino[1,2,4]triazolo[4,3-a]azocine], the remaining activity at 10 µM under setting [1] is -13.8%. Regarding `Cc1cccc(-c2nnc3n2C[C@H]2CCC[C@@H]3N2C(=O)c2cccc(C(F)(F)F)c2Cl)n1` (stereo in doubt) [Example 24, (6R*,10S*)-11-{[2-Chloro-3-(trifluoromethyl)phenyl]carbonyl}-3-(6-methylpyridin-2-yl)-5,6,7,8,9,10-hexahydro-6,10-epimino[1,2,4]triazolo[4,3-a]azocine], the remaining activity at 10 µM reads like this: (P2X7, Table 1, 10 μM compound) 32.7%; under setting [1], 32.7%. As to `O=C(c1cccc(C(F)(F)F)c1Cl)N1[C@@H]2CCC[C@H]1c1nnc(-c3cc(C(F)(F)F)ccn3)n1C2` (stereo in doubt) [Example 196, (6R,10S)-11-{[2-Chloro-3-(trifluoromethyl)phenyl]carbonyl}-3-[4-(trifluoromethyl)pyridin-2-yl]-5,6,7,8,9,10-hexahydro-6,10-epimino[1,2,4]triazolo[4,3-a]azocine], the remaining activity at 10 µM under setting [1] is -0.2%. Consider `O=C(c1cccc(C(F)(F)F)c1Cl)N1[C@H]2CCC[C@@H]1c1nnc(-c3cscn3)n1C2` (stereo in doubt) [Example 8, (6S*,10R*)-11-{[2-Chloro-3-(trifluoromethyl)phenyl]carbonyl}-3-(1,3-thiazol-4-yl)-5,6,7,8,9,10-hexahydro-6,10-epimino[1,2,4]triazolo[4,3-a]azocine], for which the remaining activity at 10 µM (P2X7, Table 1, 10 μM compound) stood at 7.3% and the remaining activity at 10 µM under setting [1] was 7.3%. For the compound `O=C(c1ccc(Cl)c(F)c1Cl)N1[C@@H]2CCC[C@H]1c1nnc(-c3ccccn3)n1C2` (stereo in doubt) [Example 202, (6R,10S)-11-[(2,4-Dichloro-3-fluorophenyl)carbonyl]-3-pyridin-2-yl-5,6,7,8,9,10-hexahydro-6,10-epimino[1,2,4]triazolo[4,3-a]azocine], under setting [1], the remaining activity at 10 µM is -2.3%. Still for that read-out and setting: the value for `Cc1c(C(=O)N2[C@@H]3CCC[C@H]2c2nnc(-c4ccccn4)n2C3)cccc1C(F)(F)F` (stereo in doubt) [Example 201, (6R,10S)-11-{[2-Methyl-3-(trifluoromethyl)phenyl]carbonyl}-3-pyridin-2-yl-5,6,7,8,9,10-hexahydro-6,10-epimino[1,2,4]triazolo[4,3-a]azocine] was -4%; that for `O=C(c1ccnc(C(F)(F)F)c1F)N1[C@@H]2CCC[C@H]1c1nnc(-c3ccccn3)n1C2` (stereo in doubt) [Example 198, (6R,10S)-11-{[3-Fluoro-2-(trifluoromethyl)pyridin-4-yl]carbonyl}-3-pyridin-2-yl-5,6,7,8,9,10-hexahydro-6,10-epimino[1,2,4]triazolo[4,3-a]azocine] was 4.1%. Take `Cc1ccnc(-c2nnc3n2C[C@H]2CCC[C@@H]3N2C(=O)c2cccc(C(F)(F)F)c2Cl)c1` (stereo in doubt) [Example 194, (6R,10S)-11-{[2-Chloro-3-(trifluoromethyl)phenyl]carbonyl}-3-(4-methylpyridin-2-yl)-5,6,7,8,9,10-hexahydro-6,10-epimino[1,2,4]triazolo[4,3-a]azocine]: under setting [1], the remaining activity at 10 µM was -13%. As to `O=C(c1cccc(C(F)(F)F)c1Cl)N1[C@@H]2CCC[C@H]1c1nnc(-c3ncc(F)cn3)n1C2` (stereo in doubt) [Example 18, (6R*,10S*)-11-{[2-Chloro-3-(trifluoromethyl)phenyl]carbonyl}-3-(5-fluoropyrimidin-2-yl)-5,6,7,8,9,10-hexahydro-6,10-epimino[1,2,4]triazolo[4,3-a]azocine], the remaining activity at 10 µM is, setting by setting: (P2X7, Table 1, 10 μM compound) -9%; under setting [1], -9%.

Take `Cc1ccc(-c2nnc3n2C[C@H]2CCC[C@@H]3N2C(=O)c2ccnc(C(F)(F)F)c2Cl)s1` (stereo in doubt) [Example 39, (6R*,10S*)-11-{[3-Chloro-2-(trifluoromethyl)pyridin-4-yl]carbonyl}-3-(5-methylthiophen-2-yl)-5,6,7,8,9,10-hexahydro-6,10-epimino[1,2,4]triazolo[4,3-a]azocine]: the remaining activity at 10 µM reads like this: (P2X7, Table 1, 10 μM compound) 5.8%; under setting [1], 5.8%.
